Read-outs that look alike come from different tables or passages of the source.
Legend:
[1] = system: “CD151-low” cell subpopulation obtained under conditions for differentiation into atrial myocytes; assay: Membrane potential analysis (FluoVolt dye) of response to atrial myocyte-specific channel inhibitor or activator, CD151-low cells; format: cell-based, human; details: 3 Hz pacing
Protocol: (§1) The “CD151-high” cell subpopulation was obtained under conditions for differentiation into ventricular myocytes and the “CD151-low” cell subpopulation was obtained under conditions for differentiation into atrial myocytes in Test Example 2. Then, their response to an atrial […] channel inhibitor 4-aminopyridine or activator carbachol was analyzed.
(§2) Each cell subpopulation was seeded at 5×10^4 cells/5 μL and cultured on a glass-bottom dish coated with fibronectin. StemPro-34 SFM containing 1% L-glutamine, 150 μg/mL transferrin, 50 μg/mL ascorbic acid, 4×10^−4 M monothioglycerol, and 5 ng/ml VEGF was used. The culture medium was changed every 3 days, and the cells were cultured at 37° C. under regular oxygen conditions. The cells at culture days 6 to 10 were subjected to membrane potential analysis.
(§3) First, the culture medium was removed. Next, 0.2 μL of membrane potential sensitive dye (FluoVolt, ThermoFisher scientific, F10488) was added per 200 μL of Gey's balanced salt solution (Sigma). […] Each “CD151-high”-induced cell was analyzed under 1 Hz pacing, and each “CD151-low”-induced cell was analyzed under 3 Hz pacing.
(§4) An AquaCosmos2.6 (Hamamatsu Photonics K. K.) was used for the analysis. While each cell was irradiated with excitation light at 490 nm every 5.9 ms for 20 s, the fluorescence response was measured. […]

[2] = system: atrial myocyte; details: cited from earlier work
[3] = system: “CD151-high” cell subpopulation obtained under conditions for differentiation into ventricular myocytes; assay: Membrane potential analysis (FluoVolt dye) of response to atrial myocyte-specific channel inhibitor or activator, CD151-high cells; format: cell-based, human; details: 1 Hz pacing
Protocol: as §1, §2, §3, §4

[4] = system: ventricular myocyte; details: cited from earlier work
[5] = carbachol 10 μM final, 1 min after addition, FIG. 5(B)
[6] = 4-aminopyridine 50 μM final, 10 min after addition, FIG. 5(A)

SMILES | effect on action potential duration (APD) [1, 5] | effect on action potential duration (APD) ([2]; carbachol added to a cell, activator of muscarinic potassium channel (IK,Ach)) | effect on action potential duration (APD) [3, 5] | effect on APD ([4]; carbachol added to a cell) | effect on action potential duration (APD) [1, 6] | effect on APD20 ([2]; 4-aminopyridine added to a cell, blocker of ultra-rapidly activating delayed rectifier potassium channel (IKur)) | effect on action potential duration (APD) [3, 6] | effect on APD ([4]; 4-aminopyridine added to a cell)
C[N+](C)(C)CCOC(N)=O [carbachol] | shorten the APD | shortened only in the atrial myocyte | no APD change | not affected |  |  |  | 
Nc1ccncc1 [4-aminopyridine] |  |  |  |  | prolong the action potential duration (APD) | prolonged only in the atrial myocyte | little APD extension | not affected

Source: patent publication US12421497B2, “Method for enriching cardiac myocytes” (Orizuru Therapeutics, Inc., priority 2019, dated 2025)
